How the values were obtained:
ERK2 wild type (WT) = ERK2 wild type (WT) (Rattus norvegicus (Rat), UniProt P63086); experiment: Fluorescence quenching (FQ) binding affinity; settings: 1 nM to 20 μM test compound
ERK2 T157A = ERK2 T157A (Rattus norvegicus (Rat), UniProt P63086, T157A); experiment: Fluorescence quenching (FQ) binding affinity; settings: read-out: KD T157A (Site1)
ERK2 D319N = ERK2 D319N (Rattus norvegicus (Rat), UniProt P63086, D319N); experiment: Fluorescence quenching (FQ) binding affinity; settings: read-out: KD D319N (Site1)
ERK2 D319N, sequence (P63086 whole entry D319N): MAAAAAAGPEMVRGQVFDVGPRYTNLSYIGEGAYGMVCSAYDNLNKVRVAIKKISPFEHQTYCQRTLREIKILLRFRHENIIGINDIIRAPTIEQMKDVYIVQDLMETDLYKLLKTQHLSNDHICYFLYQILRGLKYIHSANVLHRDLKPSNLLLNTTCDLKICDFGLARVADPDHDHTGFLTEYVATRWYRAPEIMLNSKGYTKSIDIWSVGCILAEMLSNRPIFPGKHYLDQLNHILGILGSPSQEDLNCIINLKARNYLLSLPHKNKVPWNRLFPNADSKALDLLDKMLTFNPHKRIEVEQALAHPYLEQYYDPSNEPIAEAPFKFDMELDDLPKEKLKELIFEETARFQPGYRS

ERK2 T157A/D319N = ERK2 T157A/D319N (Rattus norvegicus (Rat), UniProt P63086, D319N/T157A); experiment: Fluorescence quenching (FQ) binding affinity; settings: read-out: KD T157A/D319N (Site1)
ERK2 T157A/D319N, sequence (P63086 whole entry T157A/D319N): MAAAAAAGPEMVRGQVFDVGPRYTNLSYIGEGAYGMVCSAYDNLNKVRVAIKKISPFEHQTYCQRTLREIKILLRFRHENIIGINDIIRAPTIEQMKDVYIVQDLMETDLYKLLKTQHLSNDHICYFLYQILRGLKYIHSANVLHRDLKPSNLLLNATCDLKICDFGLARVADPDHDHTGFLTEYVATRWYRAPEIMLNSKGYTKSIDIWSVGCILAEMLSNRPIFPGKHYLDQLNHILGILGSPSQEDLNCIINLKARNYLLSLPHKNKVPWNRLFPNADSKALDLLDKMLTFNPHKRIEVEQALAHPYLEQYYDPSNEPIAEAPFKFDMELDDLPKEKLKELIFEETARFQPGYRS

A375 melanoma cells [1] = experiment: Cell proliferation WST-1 assay, single dose (Example 4); assay type: cell-based; settings: 100 μM, 48 hours
In short: (§1)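 Seed ~5000 cells/well; recover 16-20 h; treat with compound 48 h; add WST-1; read A450, subtract A650; normalize to DMSO-only cells.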

HL-60 leukemic cells = experiment: as above; assay type: cell-based; settings: 100 μM, 48 hours
In short: as §1

[2] = system: HeLa cervical carcinoma cells; experiment: as above; assay type: cell-based; settings: 100 μM, 48 hours
In short: as §1

[3] = system: Jurkat T-cell leukemia cells; experiment: as above; assay type: cell-based; settings: 100 μM, 48 hours
In short: as §1

RPMI-7951 melanoma cells = experiment: as above; assay type: cell-based; settings: 100 μM, 48 hours
In short: as §1

SK-MEL-28 melanoma cells [4] = experiment: as above; assay type: cell-based; settings: 100 μM, 48 hours
In short: as §1

A375 melanoma cells [5] = experiment: Dose-response growth inhibition (GI50) of select compounds; assay type: cell-based; settings: Homo sapiens, A-375, 48 h, two days
Description: (§2) An example of the dose response curve for compound 30h and the BRaf inhibitor PLX4032 for inhibiting the growth of melanoma cell lines is shown in FIG. 14. […] A summary of GI50 values for select compounds along with comparisons to know ERK pathway inhibitors in various cell lines is shown in Table 13. […] First, thiazolidinedione compounds have been identified to be selective inhibitors of cancer cell lines containing activated ERK signaling. Second, changes in the 4-ethoxyphenyl component of the parent compound 76 improve selectivity and potency for inhibiting melanoma cell growth. Third, compound 30h is a potent inhibitor of melanoma cell lines that have become resistant to the clinically relevant BRaf and MEK inhibitors. […] Lastly, 30h is as potent as the ATP-competitive pyrazolopyridazinamine ERK inhibitor (FR180204) in preventing melanoma cell proliferation and provides an alternative non-ATP-dependent approach to target cancer cells that are dependent on active ERK signaling.
(§3) Melanoma cells (A375, SK-MEL-28, and RPMI7951) were seeded at a density of 5,000 per well in 96-well plate. After overnight incubation, cells were treated with varying doses of PLX4032 (A) or 31h (B) for two days. Cell viability was determined by the addition of Cell Titer-Blue Reagent (20 μL/well) followed by 2 hours of incubation at 37° C. after which fluorescence was recorded (555/585 nm). Cell viability was expressed as percentage of vehicle control and data represent the average of three individual experiments.

RPMI7951 melanoma cells = experiment: as above; assay type: cell-based; settings: Homo sapiens, RPMI-7951, 48 h, two days
Description: as §2, §3

SK-MEL-28 melanoma cells [6] = experiment: as above; assay type: cell-based; settings: Homo sapiens, SK-MEL-28, 48 h, two days
Description: as §2, §3

HeLa cells = experiment: as above; assay type: cell-based; settings: Homo sapiens, HeLa
Jurkat cells = experiment: as above; assay type: cell-based; settings: Homo sapiens, Jurkat
[7] = system: activator protein-1 (AP-1) promoter; experiment: AP-1 promoter luciferase assay, HeLa cells (Example 4); assay type: cell-based; settings: Homo sapiens, EGF 25 ng/mL, read-out: estimated IC50 AP-1 promoter activity
Description: (§4) HeLa cells were seeded in 24-well plates (4×10^4 cells/well) and incubated 18 hours prior to achieve ˜60-70% confluent. Cells were transfected with activator protein-1 (pAP1(PMA)-TA-Luc; Clontech) or the serum response element (pGL4.33-SRE; Promega) luciferase reporter plasmids (250 ng/well) using Lipofectamine™ (Invitrogen). After 16 hours, cells were treated with increasing amount of compounds as indicated for 20 minutes, followed by stimulation with EGF (25 ng/mL) for 4.5 hr. The luciferase activity in the cell extracts was determined with a Dual Luciferase Assay System (Promega) according to the manufacturer's instructions. Luciferase activities were monitored with a Lumat LB 9507 luminometer (Berthold Technology) and data were normalized to the amount of protein in each sample.

[8] = system: serum response element (SRE); experiment: SRE promoter luciferase assay, HeLa cells (Example 4); assay type: cell-based; settings: Homo sapiens, EGF 25 ng/mL, read-out: estimated IC50 SRE promoter activity
Description: as §4

[9] = system: A549 lung carcinoma cells; experiment: Colony formation assay; assay type: cell-based; settings: Homo sapiens, read-out: IC50 growth inhibition, colony formation, A549
Description: (§5) We have successfully used computer-aided drug design (CADD) to search for low-molecular-weight docking domain inhibitors of ERK. One of the compounds, identified as 76, binds ERK2 with a Kd value of 5 μM and blocks phosphorylation of the downstream ERK targets RSK-1 and Elk-1. Moreover, 76 inhibited growth of HeLa cervical carcinoma and A549 lung carcinoma cells as assessed by colony formation assay in a dose dependent manner with IC50 values of ˜20 μM.

[10] = system: HeLa cervical carcinoma cells; experiment: Colony formation assay; assay type: cell-based; settings: Homo sapiens, read-out: IC50 growth inhibition, colony formation, HeLa
Description: as §5

ERK2 T157A, sequence (P63086 whole entry T157A): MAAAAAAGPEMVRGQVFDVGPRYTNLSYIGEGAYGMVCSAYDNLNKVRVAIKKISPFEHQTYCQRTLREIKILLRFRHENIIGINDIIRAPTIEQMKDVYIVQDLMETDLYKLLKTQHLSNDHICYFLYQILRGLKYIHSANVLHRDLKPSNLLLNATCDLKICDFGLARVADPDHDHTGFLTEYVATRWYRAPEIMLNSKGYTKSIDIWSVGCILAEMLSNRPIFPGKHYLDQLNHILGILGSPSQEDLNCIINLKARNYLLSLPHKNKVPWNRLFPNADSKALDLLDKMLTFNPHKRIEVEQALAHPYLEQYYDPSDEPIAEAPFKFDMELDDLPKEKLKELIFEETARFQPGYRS
ERK2 wild type (WT), sequence (P63086 whole entry): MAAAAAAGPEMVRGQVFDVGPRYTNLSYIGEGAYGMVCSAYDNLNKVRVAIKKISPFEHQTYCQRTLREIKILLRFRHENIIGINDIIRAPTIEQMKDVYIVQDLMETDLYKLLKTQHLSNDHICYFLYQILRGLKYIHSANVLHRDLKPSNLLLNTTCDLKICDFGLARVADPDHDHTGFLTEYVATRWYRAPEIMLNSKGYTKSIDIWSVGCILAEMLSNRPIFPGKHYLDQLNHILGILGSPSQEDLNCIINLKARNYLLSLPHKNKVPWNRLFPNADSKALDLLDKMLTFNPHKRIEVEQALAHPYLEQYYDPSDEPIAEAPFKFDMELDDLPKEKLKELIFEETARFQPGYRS

Question: Which results are given for `CCOc1ccc(/C=C2\SC(=O)N(CCN)C2=O)cc1` [Compound 76, (Z)-3-(2-aminoethyl)-5-(4-ethoxybenzylidene)thiazolidine-2,4-dione]?
Answer: Kd (ERK2 wild type (WT)): 5 µM; Kd (ERK2 T157A): 6.1 ± 0.6 µM; Kd (ERK2 D319N): 7 ± 1 µM; Kd (ERK2 T157A/D319N): 6.4 ± 0.3 µM; Cell Viability (% of Vehicle) A375 (A375 melanoma cells [1]): 2.1 ± 2 % of Vehicle; Cell Viability (% of Vehicle) HL-60 (HL-60 leukemic cells): 4.4 ± 1 % of Vehicle; Cell Viability (% of Vehicle) HeLa [2]: 53 ± 3 % of Vehicle; Cell Viability (% of Vehicle) Jurkat [3]: 59 ± 5 % of Vehicle; Cell Viability (% of Vehicle) RPMI-7951 (RPMI-7951 melanoma cells): 0.3 ± 0.02 % of Vehicle; Cell Viability (% of Vehicle) SK-MEL-28 (SK-MEL-28 melanoma cells [4]): 11 ± 7 % of Vehicle; GI50 (A375 melanoma cells [5]): 29 µM; GI50 (RPMI7951 melanoma cells): 46 µM; GI50 (SK-MEL-28 melanoma cells [6]): 34 µM; GI50 (HeLa cells): > 100 µM; GI50 (Jurkat cells): > 100 µM; IC50 [7]: ≤ 5 µM; IC50 [8]: ≤ 5 µM; IC50 [9]: ~20 µM; IC50 [10]: ~20 µM

From patent publication US9115122B2, “Non-ATP dependent inhibitors of extracellular signal-regulated kinase (ERK)” (UNIVERSITY OF MARYLAND, BALTIMORE, priority 2012, dated 2015)
